{
  "source": "patent US8932581B2",
  "about": "“Calcium-mediated effects of coral and methods of use thereof” (Ben Gurion University of the Negev Research and Development …, priority 2007, dated 2015)",
  "tested_on": "mesenchymal stem cells (MSCs)",
  "test": "Scanning Electron Micrographs of MSC density on coral biomatrices with and without calcium chelator",
  "type": "cell-based, Mus-musculus",
  "conditions": "incubation with the calcium chelator; FIGS. 2Aj, 2Al",
  "description": "Two biomaterial derivatives were prepared, one from the hydrocoral M. dichotoma (designated MIL) and the other, for purposes of comparison, from scleractinian coral P. lutea—(designated POR). Colonies of M. dichotoma were collected from the shallow seawater zones adjacent to the Interuniversity Institute of Marine Science (IUD in Eilat, Israel, at depths of 6-8 meters. Each colony was cut into fragments and glued with epoxy resin into the tops of PVC tubes. After an adjustment period of 3 months, cloned fragments were transferred to a laboratory tank system. POR were prepared from cores drilled out from long-lived massive colonies.\nBoth types of skeleton were cut into blocks and bleached using a commercial hypochloride solution. After this preliminary cleaning process, samples were rinsed with distilled water and air-dried. […]\nImages were acquired using an Axiovert-200 (Zeiss, Germany) inverted microscope equipped with X20 Plan-Neofluar (N.A. 0.50) and X40 LD-Acrhoplan objectives (N.A. 0.60) and a cooled CCD camera (SensiCam, PCO, USA) controlled by Metamorph (version 6.2, Universal Imaging, Downingtown, Pa.). […] Cells were counted manually, and the numbers were averaged and interpolated for 1 mm^2 of crystalline surface.",
  "data": [
    {"smiles": "O=C(O)CN(CCOCCOCCN(CC(=O)O)CC(=O)O)CC(=O)O", "note": "[EGTA, O,O′-bis(2-aminoethyl)ethyleneglycol tetraacetic acid]", "values": [
      {"measurement": "local cell density on coral seeded with MSCs, effect of calcium chelator", "value": "further increased local cell density"}
    ]}
  ]
}
